Source: patent publication US12077503B2, “Substituted cyclic amides and their use as herbicides” (FMC CORPORATION, priority 2015, dated 2024)

Tests used:
Assay type in all cases: in vivo
Kochia (Kochia scoparia) [1] = assay: Test A preemergence
Procedure, shortened: (§1)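 Seeds sprayed preemergence with a directed soil spray, or plants at 2 to 10 cm height and one- to two-leaf stage sprayed postemergence, with test chemicals in a non-phytotoxic solvent mixture containing surfactant, in loam soil–sand blend. Injury rated visually against untreated controls after about 10 d in greenhouse, 0 (no effect) to 100 (complete control).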

[2] = test system: barnyardgrass (Echinochloa crus-galli); assay: Test A preemergence
Procedure, shortened: as §1

[3] = test system: giant foxtail (Setaria faberii); assay: Test A preemergence
Procedure, shortened: as §1

[4] = test system: pigweed (Amaranthus retroflexus); assay: Test A preemergence
[5] = test system: ragweed (common ragweed, Ambrosia elatior); assay: Test A preemergence
Procedure, shortened: as §1

[6] = test system: ryegrass, Italian (Italian ryegrass, Lolium multiflorum); assay: Test A preemergence
Procedure, shortened: as §1

[7] = test system: Galium (catchweed bedstraw, Galium aparine); assay: Test A postemergence
Procedure, shortened: as §1

Kochia (Kochia scoparia) [8] = assay: Test A postemergence
Procedure, shortened: as §1

[9] = test system: barnyardgrass (Echinochloa crus-galli); assay: Test A postemergence; conditions: postemergence
Procedure, shortened: as §1

[10] = test system: blackgrass (Alopecurus myosuroides); assay: Test A postemergence; conditions: postemergence
Procedure, shortened: as §1

corn (Zea mays) = assay: Test A postemergence; conditions: postemergence
Procedure, shortened: as §1

[11] = test system: giant foxtail (Setaria faberii); assay: Test A postemergence
Procedure, shortened: as §1

[12] = test system: pigweed (Amaranthus retroflexus); assay: Test A postemergence
Procedure, shortened: as §1

[13] = test system: ragweed (common ragweed, Ambrosia elatior); assay: Test A postemergence
Procedure, shortened: as §1

[14] = test system: ryegrass, Italian (Italian ryegrass, Lolium multiflorum); assay: Test A postemergence
Procedure, shortened: as §1

[15] = test system: wheat (Triticum aestivum); assay: Test A postemergence
Procedure, shortened: as §1

[16] = test system: barnyardgrass (Echinochloa crus-galli); assay: Test B flooded paddy test; conditions: Flood, 250 g ai/ha; 0 to 100 scale where 0 is no effect and 100 is complete control; 13 to 15 d
Procedure, shortened: (§2)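 Flooding to 3 cm over soil accompanied treatment, which consisted of adding compound to the standing water around 2-leaf plants; depth was then maintained. Visual assessment versus controls followed at 13 to 15 d (scale 0–100, 0 meaning no effect).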

[17] = test system: ducksalad (Heteranthera limosa); assay: Test B flooded paddy test; conditions: Flood, 250 g ai/ha; 0 to 100 scale where 0 is no effect and 100 is complete control; 13 to 15 d
Procedure, shortened: as §2

rice (Oryra sativa) = assay: Test B flooded paddy test; conditions: Flood, 250 g ai/ha; 0 to 100 scale where 0 is no effect and 100 is complete control; 13 to 15 d
Procedure, shortened: as §2

[18] = test system: sedge, umbrella (small-flower umbrella sedge, Cyperus difformis); assay: Test B flooded paddy test; conditions: Flood, 250 g ai/ha; for Plant response rating, Sedge, Umbrella: 0 to 100 scale where 0 is no effect and 100 is complete control, 13 to 15 d
Procedure, shortened: as §2

[19] = 125 g ai/ha, Preemergence, visual injury after approximately 10 d, 0 to 100 scale where 0 is no effect and 100 is complete control
[20] = 500 g ai/ha, preemergence, 0 to 100 scale, 0 = no effect, 100 = complete control
[21] = 125 g ai/ha, preemergence, visual rating after approx. 10 d, 0 to 100 scale where 0 is no effect and 100 is complete control
[22] = 125 g ai/ha, postemergence, visual injury after approximately 10 d, 0 to 100 scale (0 no effect, 100 complete control)
[23] = 500 g ai/ha, postemergence, visual injury, 0 to 100 scale (0 no effect, 100 complete control), approx. 10 d
[24] = 125 g ai/ha, visual rating after approx. 10 d, 0 to 100 scale (0 no effect, 100 complete control)
[25] = 500 g ai/ha, visual injury, 0 to 100 scale (0 no effect, 100 complete control), approx. 10 d
[26] = 125 g ai/ha, postemergence, visual rating after approx. 10 d, 0 to 100 scale (0 no effect, 100 complete control)
[27] = 125 g ai/ha, preemergence, 0 to 100 scale (0 no effect, 100 complete control)
[28] = Preemergence, 500 g ai/ha, visual injury approx. 10 d
[29] = 125 g ai/ha, postemergence, visual injury rating on 0 to 100 scale (0 no effect, 100 complete control), approx. 10 d
[30] = Postemergence, 500 g ai/ha, 0 to 100 scale where 0 is no effect and 100 is complete control
[31] = 125 g ai/ha, visual injury rating on 0 to 100 scale (0 no effect, 100 complete control), approx. 10 d
[32] = 500 g ai/ha, 0 to 100 scale, 0 no effect, 100 complete control

## CN1CC(c2ccc(C(C)(F)F)cc2)C(C(=O)Nc2ccc(F)cc2F)C1=O (stereo not drawn) [Compound 693]
Kochia (Kochia scoparia) [1]; [19]
  Plant response rating, Kochia: 80
Kochia (Kochia scoparia) [1]; [20]
  Plant response rating, Kochia: 90
[2]; [19]
  Plant response rating, Barnyardgrass: 80
[2]; [20]
  Plant response rating, Barnyardgrass: 90
[3]; [19]
  Plant response rating, Foxtail, Giant: 90
[3]; [20]
  Plant response rating, Foxtail, Giant: 90
[4]; [21]
  Plant response rating, Pigweed: 70
[4]; [20]
  Plant response rating, Pigweed: 80
[5]; [21]
  Plant response rating, Ragweed: 50
[5]; [20]
  Plant response rating, Ragweed: 60
[6]; [21]
  Plant response rating, Ryegrass, Italian: 60
[6]; [20]
  Plant response rating, Ryegrass, Italian: 70
[7]; [22]
  Plant response rating, Galium: 60
[7]; [23]
  Plant response rating, Galium: 70
Kochia (Kochia scoparia) [8]; [22]
  Plant response rating, Kochia: 60
Kochia (Kochia scoparia) [8]; [23]
  Plant response rating, Kochia: 70
[9]; [24]
  Plant response rating, Barnyardgrass: 70
[9]; [25]
  Plant response rating, Barnyardgrass: 80
[10]; [24]
  Plant response rating, Blackgrass: 10
[10]; [25]
  Plant response rating, Blackgrass: 50
Corn (Zea mays); 125 g ai/ha, visual injury after approximately 10 d, 0 to 100 scale (0 no effect, 100 complete control)
  Plant response rating, Corn: 40
Corn (Zea mays); [25]
  Plant response rating, Corn: 70
[11]; [22]
  Plant response rating, Foxtail, Giant: 80
[11]; [23]
  Plant response rating, Foxtail, Giant: 80
[12]; [22]
  Plant response rating, Pigweed: 10
[12]; [23]
  Plant response rating, Pigweed: 70
[13]; [22]
  Plant response rating, Ragweed: 0
[13]; [23]
  Plant response rating, Ragweed: 10
[14]; [22]
  Plant response rating, Ryegrass, Italian: 50
[14]; [23]
  Plant response rating, Ryegrass, Italian: 70
[15]; [22]
  Plant response rating, Wheat: 0
[15]; [23]
  Plant response rating, Wheat: 50
[16]
  Plant response rating, Barnyardgrass: 75
[17]
  Plant response rating, Ducksalad: 70
Rice (Oryra sativa)
  Plant response rating, Rice: 20
[18]; scale of 0 to 100 where 0 is no effect and 100 is complete control
  Sedge, Umbrella plant response rating: 0

## Cc1ccc(C2CNC(=O)C2C(=O)Nc2ccc(F)cc2F)cc1C(F)(F)F (racemic) [Compound 655]
Kochia (Kochia scoparia) [1]; [19]
  Plant response rating, Kochia: 30
Kochia (Kochia scoparia) [1]; [20]
  Plant response rating, Kochia: 40
[2]; [19]
  Plant response rating, Barnyardgrass: 90
[2]; [20]
  Plant response rating, Barnyardgrass: 90
[3]; [19]
  Plant response rating, Foxtail, Giant: 90
[3]; [20]
  Plant response rating, Foxtail, Giant: 90
[4]; [19]
  Plant response rating, Pigweed: 50
[4]; [20]
  Plant response rating, Pigweed: 60
[5]; [19]
  Plant response rating, Ragweed: 0
[5]; [20]
  Plant response rating, Ragweed: 30
[6]; [19]
  Plant response rating, Ryegrass, Italian: 40
[6]; [20]
  Plant response rating, Ryegrass, Italian: 60
[7]; [26]
  Plant response rating, Galium: 30
[7]; [23]
  Plant response rating, Galium: 50
Kochia (Kochia scoparia) [8]; [26]
  Plant response rating, Kochia: 30
Kochia (Kochia scoparia) [8]; [23]
  Plant response rating, Kochia: 40
[9]; [24]
  Plant response rating, Barnyardgrass: 70
[9]; [25]
  Plant response rating, Barnyardgrass: 90
[10]; [24]
  Plant response rating, Blackgrass: 20
[10]; [25]
  Plant response rating, Blackgrass: 30
Corn (Zea mays); [24]
  Plant response rating, Corn: 0
Corn (Zea mays); [25]
  Plant response rating, Corn: 30
[11]; [26]
  Plant response rating, Foxtail, Giant: 40
[11]; [23]
  Plant response rating, Foxtail, Giant: 60
[12]; [26]
  Plant response rating, Pigweed: 0
[12]; [23]
  Plant response rating, Pigweed: 0
[13]; [26]
  Plant response rating, Ragweed: 0
[13]; [23]
  Plant response rating, Ragweed: 0
[14]; [26]
  Plant response rating, Ryegrass, Italian: 0
[14]; [23]
  Plant response rating, Ryegrass, Italian: 30
[15]; [26]
  Plant response rating, Wheat: 0
[15]; [23]
  Plant response rating, Wheat: 10
[16]
  Plant response rating, Barnyardgrass: 20
[17]
  Plant response rating, Ducksalad: 100
Rice (Oryra sativa)
  Plant response rating, Rice: 30
[18]
  Plant response rating, Sedge, Umbrella: 0

## CCc1ccc(C2CNC(=O)C2C(=O)Nc2ccccc2S(C)(=O)=O)cc1 (stereo not drawn) [Compound 468]
Kochia (Kochia scoparia) [1]; [27]
  Plant response rating, Kochia: 40
Kochia (Kochia scoparia) [1]; [28]
  Kochia plant response rating (0 to 100 scale, 0 is no effect, 100 is complete control): 80
[2]; [27]
  Plant response rating, Barnyardgrass: 0
[2]; [28]
  Barnyardgrass plant response rating (0 to 100 scale, 0 is no effect, 100 is complete control): 20
[3]; [27]
  Plant response rating, Foxtail, Giant: 0
[3]; [28]
  Foxtail, Giant plant response rating (0 to 100 scale, 0 is no effect, 100 is complete control): 80
[4]; [19]
  Plant response rating, Pigweed: 0
[4]; [28]
  Pigweed plant response rating (0 to 100 scale, 0 is no effect, 100 is complete control): 50
[5]; [19]
  Plant response rating, Ragweed: 0
[5]; [28]
  Ragweed plant response rating (0 to 100 scale, 0 is no effect, 100 is complete control): 70
[6]; [19]
  Plant response rating, Ryegrass, Italian: 0
[6]; [28]
  Ryegrass, Italian plant response rating (0 to 100 scale, 0 is no effect, 100 is complete control): 0
[7]; [29]
  Galium plant response rating: 20
[7]; [30]
  Plant response rating, Galium: 30
Kochia (Kochia scoparia) [8]; [29]
  Kochia plant response rating: 0
Kochia (Kochia scoparia) [8]; [30]
  Plant response rating, Kochia: 20
[9]; [31]
  Barnyardgrass plant response rating: 0
[9]; [32]
  Plant response rating, Barnyardgrass: 30
[10]; [31]
  Blackgrass plant response rating: 0
[10]; [32]
  Plant response rating, Blackgrass: 20
Corn (Zea mays); [31]
  Corn plant response rating: 0
Corn (Zea mays); [32]
  Plant response rating, Corn: 0
[11]; [29]
  Foxtail, Giant plant response rating: 0
[11]; [30]
  Plant response rating, Foxtail, Giant: 0
[12]; [29]
  Pigweed plant response rating: 0
[12]; [30]
  Plant response rating, Pigweed: 0
[13]; [29]
  Ragweed plant response rating: 0
[13]; [30]
  Plant response rating, Ragweed: 0
[14]; [29]
  Ryegrass, Italian plant response rating: 0
[14]; [30]
  Plant response rating, Ryegrass, Italian: 0
[15]; [29]
  Wheat plant response rating: 0
[15]; [30]
  Plant response rating, Wheat: 20
[16]
  Plant response rating, Barnyardgrass: 35
[17]
  Plant response rating, Ducksalad: 85
Rice (Oryra sativa)
  Plant response rating, Rice: 0
[18]
  Plant response rating, Sedge, Umbrella: 0
